From patent US6653479B1, “Crystalline form of 6-hydroxy-3-(4-[2-(piperidin-1-yl)ethoxy]phenoxy)-2-(4-methoxyphenyl)benzo[b] thiophene hydrochloride” (Eli Lilly and Company, priority 1999, dated 2003)

Columns and labels:
Format in all cases: physicochemical
[1] = Hygroscopicity (moisture sorption isotherms, VTI method)
Protocol: Hygroscopicicity studies were performed on F-I and F-III. Upon initial exposure of the samples to approximately 5% RH, there was an immediate weight gain of 1.5% and 1.7% moisture for F-I and F-III, respectively, equivalent to approximately 0.5 mole of water. Both forms show a continuous sorption of moisture through the entire humidity range, which is likely due to incorporation of water molecules in the lattices.
The moisture sorption profiles for F-I and F-III reveal that these forms are essentially non-stoichiometric hydrates. At ambient relative humidity (about 50% RH), F-I contains approximately 1.7% water, corresponding to 0.5 moles of water, while F-III has sorbed about 3.0% water which corresponds to about 0.85 moles of water. The bulk forms of F-I and F-III rapidly equilibrate with the atmosphere, so that the water content observed by analytical techniques is a reflection of the relative humidity at the time of data collection. Lot-to-lot differences observed in the DSC data likely results from the samples being hydrated to different extents due to different ambient storage conditions.
Hygroscopicity measurements were made for F-I and F-III using the VTI method as follows. Each sample was dried under vacuum at 60° C. until no further weight loss was detected, at which time the sample chamber was brought to 0% relative humidity. Moisture sorption isotherms were obtained at 25° C. using a VTI vacuum moisture balance with the following conditions: sample size 10-15 mg, adsorption/desorption range 0-95% relative humidity, step interval 5%, sample interval 10 minutes.

[2] = Stability at different relative humidities (XRD of stored samples); details: entire relative humidity range
Protocol: XRD patterns were obtained for samples of F-I and F-III stored at different relative humidities (0, 22, 50, and 80%). There is a gradual shifting of the initial (0% RH) F-III peaks at about 13.8, 17.6, 18.0, 20.5 and 24.0° in 2θ as well as slight shifting of less intense peaks, as the relative humidity is increased. These observed changes in the XRD patterns of F-III indicate that the unit cell dimensions are changing, presumably to accommodate weakly held water molecules as the relative humidity is increased.
A similar experiment was carried out on F-I to determine whether varying the relative humidity would have a similar effect on its lattice (0, 25, 52, 73 and 95% RH). Very slight shifting of the 0% RH peaks at about 7.7, 18.3, 18.5, 20.5, 20.8° in 2θ is observed as the relative humidity is increased. […] The shifting of peaks in the XRD patterns of F-I is less dramatic than the peak shifts observed as F-III was exposed to different relative humidities.
XRD patterns were obtained on a Siemens D5000 X-ray powder diffractometer, equipped with a CuKα source (λ=1.54056 Å) and a Kevex solid-state detector, operating at 50 kV and 40 mA. Each sample was scanned between 4° and 35° in 2θ. Samples were allowed to equilibrate for at least 30 minutes at the desired temperature and/or relative humidity before data collection.

[3] = Comparison of aqueous solubility and dissolution rate; details: F-I compared with F-III
[4] = Stability at ambient temperature relative to arzoxifene of '474; details: relative to the arzoxifene produced by the procedures taught in '474
[5] = ambient relative humidity (about 50% RH)

SMILES: COc1ccc(-c2sc3cc(O)ccc3c2Oc2ccc(OCCN3CCCCC3)cc2)cc1.Cl [F-I, 6-hydroxy-3-(4-[2-(piperidin-1-yl)ethoxy]phenoxy)-2-(4-methoxyphenyl)benzo[b]thiophene hydrochloride]
- water content [1, 5]: approximately 1.7%
- water content in moles of water [1, 5]: 0.5 mol
- water equivalent of the weight gain ([1]; approximately 5% RH): approximately 0.5 mole
- immediate weight gain of moisture ([1]; initial exposure to approximately 5% RH, 25° C.): 1.5%
- stability over relative humidity range [2]: stable over the entire relative humidity range
- aqueous solubilities [3]: comparable
- dissolution rates [3]: comparable
- stability at ambient temperature [4]: more stable
